Assay [1] deals with Bcl‐2‐ΔTM (UniProt P10415). As to the kind of experiment: FP competitive binding assay. The following applies: fluorescence polarization; 100 nM Bcl‐2‐ΔTM and 25 nM ^FluBax‐BH3^ΔB pre-incubated 1 h, competitor 100 μM to 2.3 pM, further 1 h, ambient temperature; binding buffer 50 mM Tris, 100 mM NaCl, pH 8.0; triplicate; read-out: IC50 (competition with ^FluBax‐BH3^ΔB for Bcl‐2‐ΔTM). As for the experimental part:
FP competitive binding assays were performed in triplicate on black 384‐well plates (#3575, Corning, Corning, NY) using a SpectraMax M5e multi‐mode plate reader (Molecular Devices, Sunnyvale, CA). For these experiments, 100 nM Bcl‐2‐ΔTM and 25 nM ^FluBax‐BH3^ΔB were initially co‐incubated for 1 h in binding buffer at ambient temperature in the dark. Following pre‐incubation, serial dilutions of acetylated peptides (100 μM to 2.3 pM) were added, and the solutions were allowed to incubate for an additional 1 h at ambient temperature in the dark. This incubation time was deemed sufficient for binding reactions to reach equilibrium, as judged by an absence of change in the observed polarization value of the sample with the lowest protein concentration over 4 h (data not shown). Following incubation, the fluorescence polarization of each sample was measured using an excitation wavelength of 498 nm and an emission wavelength of 525 nm. An average of 100 reads were recorded for each well. […]
Background: Fluorescence polarisation rises when a labelled molecule tumbles more slowly, as on binding a larger partner.

Assay [2] has as its target Bcl‐2‐ΔTM (UniProt P10415). As to the kind of experiment: Isothermal titration calorimetry (ITC). The following applies: 25°C; for n (number of sites): 20 μM Bcl‐2‐ΔTM in cell, 200 μM peptide injected; for n (number of sites) / TΔS / ΔH: binding buffer pH 8.0, ± SD, SD; for ΔG: binding buffer pH 8.0, calculated as ΔH − TΔS. It counts as binding. How it is done:
All ITC experiments were performed in triplicate using a MicroCal 200 ITC instrument (Malvern Panalytical) at 25°C. To initiate ITC experiments, the sample cell was filled with 250 μL of binding buffer supplemented with 20 μM Bcl‐2‐ΔTM. Acetylated peptides were then diluted to a final concentration of 200 μM in binding buffer and injected into the sample cell at 2 μL volumes using a 6 s injection time and a 150 s delay between each injection. Data analysis was performed using MicroCal Origin software v7.0. Non‐linear curves were fit using Equation (3) adapted from the instrument manual: (3) ΔQ=nMtΔHVo/21+Xt/nMt+1/nKaMt−1+Xt/nMt+1/nKaMt^2−4Xt/nMt where, ΔQ is the heat content released or absorbed by each injection. ΔH is the enthalpy change of ligand binding and M t is bulk concentration of Bcl‐2‐ΔTM. V o is the cell volume of Bcl‐2‐ΔTM and K a is the affinity constant. X t is bulk concentration of peptide and n is the number of sites occupied by the peptide. Dissociation constants (K d) for all peptides were calculated by taking the reciprocal of the K a .
ΔG values were calculated from the Gibbs free energy Equation (4) using Origin‐fitted values of ΔH and program‐calculated values of ΔS. (4) ΔG=ΔΗ−ΤΔS

Where a SMILES comes first, the peptide text is derived from it.

For orientation: IC50 means the point on the concentration scale where inhibition reaches its midpoint. As a reminder, the Kd is the equilibrium constant for the complex coming apart. Lower therefore signals higher affinity.

Chain of Bcl‐2‐ΔTM (P10415 whole entry, stated change not applied): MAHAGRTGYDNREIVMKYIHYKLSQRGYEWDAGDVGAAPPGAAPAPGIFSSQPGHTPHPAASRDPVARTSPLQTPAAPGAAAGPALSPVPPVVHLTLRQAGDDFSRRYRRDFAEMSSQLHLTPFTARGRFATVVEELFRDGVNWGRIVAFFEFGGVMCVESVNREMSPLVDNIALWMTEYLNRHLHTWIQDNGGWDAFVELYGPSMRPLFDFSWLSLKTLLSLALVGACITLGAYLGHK

For `CC[C@H](NC(=O)[C@H](CCC(=O)O)NC(=O)[C@H](CO)NC(=O)[C@H](CC(C)C)NC(=O)[C@H](CCCCN)NC(=O)[C@H](CCCCN)NC(=O)[C@@H](NC(=O)[C@H](CO)NC(=O)CNC(C)=O)[C@@H](C)O)C(=O)N[C@@H](CC(C)C)C(=O)N[C@@H](CCCCN)C(=O)N[C@@H](CCCNC(=N)N)C(=O)N[C@H](C(=O)NCC(=O)N[C@@H](CC(=O)O)C(=O)N[C@@H](CCC(=O)O)C(=O)N[C@@H](CC(C)C)C(=O)N[C@@H](CC(=O)O)C(=O)N[C@@H](CO)C(=O)N[C@@H](CC(N)=O)C(=O)N[C@@H](CCSC)C(N)=O)[C@@H](C)CC` [^AcBax‐BH3^ΔB, reference compound] (HELM PEPTIDE1{[ac].G.S.T.K.K.L.S.E.[Abu].L.K.R.I.G.D.E.L.D.S.N.M.[am]}$$$$V2.0), at Bcl‐2‐ΔTM [1], the 50% inhibitory concentration (IC50) turned out to be 0.141 µM. At Bcl‐2‐ΔTM [2] (3 trials), the “n (number of sites)” value is reported as 0.93 ± 0.05, the TΔS is given as 4.58 ± 0.20 kcal/mol and the ΔH is -5.43 ± 0.73 kcal/mol. On Bcl‐2‐ΔTM [2] (± SD, 3 trials), the ΔG is -10.02 ± 0.89 kcal/mol. Besides, the Kd at Bcl‐2‐ΔTM [2] (binding buffer pH 8.0, reciprocal of K a, ± SD, 3 trials) amounted to 0.191 ± 0.0275 µM. Moreover, the “difference in ΔG, complex more stable than that of ^AcScTx‐Bax^ΔΔΔ” value at Bcl‐2‐ΔTM [2] (versus ^AcScTx‐Bax^ΔΔΔ) was found to be 1.53 kcal/mol.
As to `CC[C@H](NC(=O)[C@H](CO)NC(=O)CNC(C)=O)C(=O)N[C@@H](CCCCN)C(=O)N[C@@H](CCCCN)C(=O)N[C@@H](CC(C)C)C(=O)N[C@@H](CO)C(=O)N[C@H]1CSSC[C@@H](C(=O)N[C@@H](CCC(=O)O)C(=O)N[C@@H](CC)C(=O)N[C@H](C(=O)N[C@@H](CCCCN)C(=O)N[C@@H](Cc2c[nH]cn2)C(N)=O)C(C)C)NC(=O)[C@H](CCCCN)NC(=O)[C@H](CC(=O)O)NC(=O)CNC(=O)[C@H]([C@@H](C)CC)NC(=O)[C@H](CC)NC(=O)[C@H](CCCCN)NC(=O)CNC(=O)[C@H](CC(C)C)NC(=O)[C@H](CC(C)C)NC(=O)CNC(=O)[C@H](CC(=O)O)NC(=O)CNC(=O)[C@H]([C@@H](C)CC)NC(=O)[C@H](CC)NC(=O)[C@H](CCCCN)NC(=O)[C@H](CC(C)C)NC(=O)[C@H](CC)NC1=O` [^AcScTx‐Bax^ΔΔ,8–26] (HELM PEPTIDE1{[ac].G.S.[Abu].K.K.L.S.C.[Abu].L.K.[Abu].I.G.D.G.L.L.G.K.[Abu].I.G.D.K.C.E.[Abu].V.K.H.[am]}$PEPTIDE1,PEPTIDE1,9:R3-27:R3$$$V2.0), at Bcl‐2‐ΔTM [2] (3 trials), the “n (number of sites)” value came to 1.13 ± 0.08, the TΔS worked out at 1.63 ± 0.03 kcal/mol and the ΔH was -5.88 ± 0.15 kcal/mol. Moreover, the ΔG at Bcl‐2‐ΔTM [2] (± SD, 3 trials) is -7.51 ± 0.12 kcal/mol.
Turning to `CC[C@H](NC(=O)[C@H](CO)NC(=O)CNC(C)=O)C(=O)N[C@@H](CCCCN)C(=O)N[C@@H](CCCCN)C(=O)N[C@@H](CC(C)C)C(=O)N[C@@H](CO)C(=O)N[C@@H](CC)C(=O)N[C@@H](CC)C(=O)N[C@@H](CC(C)C)C(=O)N[C@@H](CCCCN)C(=O)N[C@@H](CC)C(=O)N[C@H](C(=O)NCC(=O)N[C@@H](CC(=O)O)C(=O)NCC(=O)N[C@@H](CC(C)C)C(=O)N[C@@H](CC(C)C)C(=O)NCC(=O)N[C@@H](CCCCN)C(=O)N[C@@H](CC)C(=O)N[C@H](C(=O)NCC(=O)N[C@@H](CC(=O)O)C(=O)N[C@@H](CCCCN)C(=O)N[C@@H](CC)C(=O)N[C@@H](CCC(=O)O)C(=O)N[C@@H](CC)C(=O)N[C@H](C(=O)N[C@@H](CCCCN)C(=O)N[C@@H](Cc1c[nH]cn1)C(N)=O)C(C)C)[C@@H](C)CC)[C@@H](C)CC` [^AcScTx‐Bax^ΔΔΔ] (HELM PEPTIDE1{[ac].G.S.[Abu].K.K.L.S.[Abu].[Abu].L.K.[Abu].I.G.D.G.L.L.G.K.[Abu].I.G.D.K.[Abu].E.[Abu].V.K.H.[am]}$$$$V2.0), at Bcl‐2‐ΔTM [2] (3 trials), the “n (number of sites)” value is on record as 0.90 ± 0.09, the TΔS amounted to 4.64 ± 0.11 kcal/mol and the ΔH is -3.85 ± 0.33 kcal/mol. Besides, the ΔG on Bcl‐2‐ΔTM [2] (± SD, 3 trials) was -8.49 ± 0.33 kcal/mol. The “enthalpic contribution less favorable than with ^AcBax‐BH3^ΔB” value at Bcl‐2‐ΔTM [2] (versus ^AcBax‐BH3^ΔB) amounted to 1.58 kcal/mol. The “difference in ΔG, binds more favorably than ^AcScTx‐Bax^ΔΔ,8–26” value on Bcl‐2‐ΔTM [2] (versus ^AcScTx‐Bax^ΔΔ,8–26) is recorded as roughly 1 kcal/mol.

The record behind these values is article PMC11794977, “Inhibitory Potential and Binding Thermodynamics of Scyllatoxin‐Based BH3 Domain Mimetics Targeting Repressor BCL2 Proteins” (Journal of Molecular Recognition, 2025).
